System: subjects with chronic ITP
Assay: Combined 28-day and 6-month rollover studies of E5501: safety (TEAEs, serious TEAEs, thromboembolic events, neoplasms, liver toxicity, discontinuations)
Assay type: in vivo, human
Excerpt: Primary Endpoint: The primary endpoint was to assess the safety and tolerability to E5501, including AEs and clinical laboratory parameters, over the 6 additional months of treatment.
In this way, safety data reflect each subject's complete duration of exposure to E5501 starting with lead-in the previous study and continuing into the current study.
Following Protocol Amendment 4, the current study contained a flexible dose regimen; therefore, this study was considered to have an open-label, uncontrolled, single-arm design. […] This was the method used to assess safety. • Grouping method B was based on both treatment received and day 28 platelet response to study drug in Study the previous study. This was the method used for the analysis of efficacy for the FAS and the SE population.
Overall Adverse Events. […] The primary focus is on summary statistics for the entire safety population and provides an overall safety profile for E5501. The summary statistics for each group, e.g., lower ⅓, middle ⅓ and upper ⅓ average daily dose levels, is secondary and provides further safety information across the 3 dose levels.

[1] = Middle ⅓ dose (≧8.85-<13.5 mg), N=22
[2] = Safety Population, Middle ⅓ Mean Daily Dose Level (≧8.85-<13.5 mg)
[3] = Upper ⅓ dose (≧13.5-≦25.7 mg), N=20

O=C(Nc1nc(-c2cc(Cl)cs2)c(N2CCN(C3CCCCC3)CC2)s1)c1cnc(N2CCC(C(=O)O)CC2)c(Cl)c1 [E5501, 1-(3-chloro-5-{[4-(4-chlorothiophen-2-yl)-5-(4-cyclohexylpiperazin-1-yl)thiazol-2-yl]carbamoyl}pyridine-2-yl)piperidine-4-carboxylic acid]
Vomiting, % of subjects [1]: (9.1) % | Vomiting, n of subjects [1]: 2 | Withdrawal due to TEAE, % of subjects [1]: (9.1) % | Withdrawal due to TEAE, n of subjects [1]: 2 | Discontinuation in 501-CL-003, PC increase to ≧500,000/mm^3 (Safety Population, Lower ⅓ Mean Daily Dose Level (2.5-<8.85 mg)): 0 n | Discontinuation in 501-CL-003, PC increase to ≧500,000/mm^3 [2]: 0 n | Discontinuation in 501-CL-004, PC increase to ≧500,000/mm^3 [2]: 0 n | Discontinuation in 501-CL-003, Adverse Event or SAE (Safety Population, Upper ⅓ Mean Daily Dose Level (≧13.5-≦25.7 mg)): 0 n | Abdominal pain upper, % of subjects (Total E5501, N=64): (4.7) % | Abdominal pain upper, n of subjects (Total E5501, N=64): 3 | Any TEAE, % of subjects (Total E5501, N=64): (96.9) % | Any TEAE, n of subjects (Total E5501, N=64): 62 | Arthralgia, % of subjects (Total E5501, N=64): (14.1) % | Arthralgia, n of subjects (Total E5501, N=64): 9 | Asthenia, % of subjects (Total E5501, N=64): (6.3) % | Asthenia, n of subjects (Total E5501, N=64): 4 | Back pain, % of subjects (Total E5501, N=64): (9.4) % | Back pain, n of subjects (Total E5501, N=64): 6 | Constipation, % of subjects (Total E5501, N=64): (4.7) % | Constipation, n of subjects (Total E5501, N=64): 3 | Contusion, % of subjects (Total E5501, N=64): (18.8) % | Contusion, n of subjects (Total E5501, N=64): 12 | Cough, % of subjects (Total E5501, N=64): (4.7) % | Cough, n of subjects (Total E5501, N=64): 3 | Deaths, n of subjects (Total E5501, N=64): 0 | Diarrhoea, % of subjects (Total E5501, N=64): (14.1) % | Diarrhoea, n of subjects (Total E5501, N=64): 9 | Dizziness, % of subjects (Total E5501, N=64): (7.8) % | Dizziness, n of subjects (Total E5501, N=64): 5 | Dose interruption due to TEAE, % of subjects (Total E5501, N=64): (12.5) % | Dose interruption due to TEAE, n of subjects (Total E5501, N=64): 8 | Dyspnoea, % of subjects (Total E5501, N=64): (9.4) % | Dyspnoea, n of subjects (Total E5501, N=64): 6 | Ecchymosis, % of subjects (Total E5501, N=64): (6.3) % | Ecchymosis, n of subjects (Total E5501, N=64): 4 | Epistaxis, % of subjects (Total E5501, N=64): (23.4) % | Epistaxis, n of subjects (Total E5501, N=64): 15 | Fatigue, % of subjects (Total E5501, N=64): (34.4) % | Fatigue, n of subjects (Total E5501, N=64): 22 | Gingival bleeding, % of subjects (Total E5501, N=64): (10.9) % | Gingival bleeding, n of subjects (Total E5501, N=64): 7 | Headache, % of subjects (Total E5501, N=64): (32.8) % | Headache, n of subjects (Total E5501, N=64): 21 | Insomnia, % of subjects (Total E5501, N=64): (7.8) % | Insomnia, n of subjects (Total E5501, N=64): 5 | Migraine, % of subjects (Total E5501, N=64): (4.7) % | Migraine, n of subjects (Total E5501, N=64): 3 | Mouth haemorrhage, % of subjects (Total E5501, N=64): (3.1) % | Mouth haemorrhage, n of subjects (Total E5501, N=64): 2 | Nausea, % of subjects (Total E5501, N=64): (9.4) % | Nausea, n of subjects (Total E5501, N=64): 6 | Pain in extremity, % of subjects (Total E5501, N=64): (9.4) % | Pain in extremity, n of subjects (Total E5501, N=64): 6 | Petechiae, % of subjects (Total E5501, N=64): (9.4) % | Petechiae, n of subjects (Total E5501, N=64): 6 | Platelet count increased, % of subjects (Total E5501, N=64): (9.4) % | Platelet count increased, n of subjects (Total E5501, N=64): 6 | Serious TEAE, % of subjects (Total E5501, N=64): (7.8) % | Serious TEAE, n of subjects (Total E5501, N=64): 5 | Serious treatment-related TEAEs, % of subjects (Total E5501, N=64): (3.1) % | Serious treatment-related TEAEs, n of subjects (Total E5501, N=64): 2 | Severe (grade 3-4) TEAEs, % of subjects (Total E5501, N=64): (25.0) % | Severe (grade 3-4) TEAEs, n of subjects (Total E5501, N=64): 16 | Somnolence, % of subjects (Total E5501, N=64): (3.1) % | Somnolence, n of subjects (Total E5501, N=64): 2 | Suspected drug-related AEs, % of subjects (Total E5501, N=64): (64.1) % | Suspected drug-related AEs, n of subjects (Total E5501, N=64): 41 | Upper respiratory tract infection, % of subjects (Total E5501, N=64): (9.4) % | Upper respiratory tract infection, n of subjects (Total E5501, N=64): 6 | Vomiting, % of subjects (Total E5501, N=64): (10.0) % | Vomiting, n of subjects (Total E5501, N=64): 7 | Withdrawal due to TEAE, % of subjects (Total E5501, N=64): (10.9) % | Withdrawal due to TEAE, n of subjects (Total E5501, N=64): 7 | Abdominal pain upper, % of subjects [3]: (15.0) % | Abdominal pain upper, n of subjects [3]: 3 | Any Serious TEAE, n (%) of subjects [3]: 1 (5.0) n (%) | Any TEAE, % of subjects [3]: (100.0) % | Any TEAE, n of subjects [3]: 20 | Arthralgia, % of subjects [3]: (20.0) % | Arthralgia, n of subjects [3]: 4 | Asthenia, % of subjects [3]: (5.0) % | Asthenia, n of subjects [3]: 1 | Back pain, % of subjects [3]: (15.0) % | Back pain, n of subjects [3]: 3 | Constipation, n of subjects [3]: 0 | Contusion, % of subjects [3]: (30.0) % | Contusion, n of subjects [3]: 6 | Cough, % of subjects [3]: (10.0) % | Cough, n of subjects [3]: 2 | Deaths, n of subjects [3]: 0 | Diarrhoea, % of subjects [3]: (25.0) % | Diarrhoea, n of subjects [3]: 5 | Dizziness, % of subjects [3]: (15.0) % | Dizziness, n of subjects [3]: 3

— patent US20110166112A1, “METHOD FOR STIMULATING PLATELET PRODUCTION” (Eisai, Inc., priority 2009, published 2011)
